In patent publication US10124004B2, “Pyrido[3,4-d]pyrimidine derivative and pharmaceutically acceptable salt thereof” (Teijin Pharma Limited, priority 2015, dated 2018):
Read-outs that look alike come from different tables or passages of the source.

Assays:
[1] = target: T1, CDK2/cyclin A2 (Homo sapiens, UniProt P24941); experiment: Human CDK2/cyclin A2 inhibitory activity (QS S Assist CDK2/Cyclin A2_FP Kit, IMAP fluorescence polarization); assay type: biochemical
T1 construct: purchased Carna Biosciences, Inc. QS S Assist CDK2/Cyclin A2_FP Kit
In short: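 Kinase activity read as fluorescence polarization (485/535 nm) after phosphorylated fluorescent substrate binds IMAP reagent (30 min, RT, dark). Enzyme (2.5 ng/well) reacted 60 min at RT with ATP/substrate/metal in HEPES pH 7.4 buffer with Tween 20 and DTT; no-enzyme wells define 0% activity; IC50 by curve fit.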

[2] = target: T2, CDK4/cyclin D3 (Homo sapiens, UniProt P11802); experiment: Human CDK4/cyclin D3 inhibitory activity (QS S Assist CDK4/Cyclin D3_FP Kit, IMAP fluorescence polarization); assay type: biochemical
T2 construct: purchased Carna Biosciences, Inc. QS S Assist CDK4/Cyclin D3_FP Kit
T2 sequence (P11802 whole entry): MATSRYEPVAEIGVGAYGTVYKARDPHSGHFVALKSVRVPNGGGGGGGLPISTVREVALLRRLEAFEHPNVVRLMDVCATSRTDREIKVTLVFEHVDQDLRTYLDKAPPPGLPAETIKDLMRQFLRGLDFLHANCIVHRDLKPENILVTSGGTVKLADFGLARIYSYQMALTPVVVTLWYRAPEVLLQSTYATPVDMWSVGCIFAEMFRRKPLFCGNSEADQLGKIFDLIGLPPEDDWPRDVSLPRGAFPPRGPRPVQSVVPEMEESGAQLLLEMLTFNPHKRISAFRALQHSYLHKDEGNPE
T2 sequence (P30281 whole entry partner): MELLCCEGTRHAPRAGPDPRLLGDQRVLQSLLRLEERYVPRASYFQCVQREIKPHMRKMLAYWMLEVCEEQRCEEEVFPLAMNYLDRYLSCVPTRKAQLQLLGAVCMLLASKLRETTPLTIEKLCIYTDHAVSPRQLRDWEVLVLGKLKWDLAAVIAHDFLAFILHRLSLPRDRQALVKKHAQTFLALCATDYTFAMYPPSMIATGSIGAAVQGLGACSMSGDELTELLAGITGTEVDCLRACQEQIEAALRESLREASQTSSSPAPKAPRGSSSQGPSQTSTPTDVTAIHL
In short: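 IMAP fluorescence-polarization kinase assay with kit ATP/substrate/metal mix and 12.5 to 25 ng/well enzyme in 20 mM HEPES pH 7.4, 0.01% Tween20, 2 mM DTT. Reaction ran 45 min at room temperature, then binding reagent was added for 30 min in the dark. IC50 was taken from dose-response fits of percent inhibition.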

[3] = 50% inhibitory concentration against CDK2/cyclin A2, given as class symbol
[4] = 50% inhibitory concentration against CDK4/cyclin D3, given as class symbol
[5] = Human CDK2/cyclin A2 inhibitory activity, read-out: CDK2 Activity symbol
[6] = Human CDK4/cyclin D3 inhibitory activity, read-out: CDK4 Activity symbol

Row | SMILES | IC50 [1, 3] [nM] | IC50 [2, 4] [nM] | IC50 [1, 5] [nM] | IC50 [2, 6] [nM]
1 | CCNc1nc([C@@H](C)O)cc2cnc(Nc3ccc(CN4CCC(O)CC4)cn3)nc12 [Compound 1060] | ≥ 100 | < 10 |  | 
2 | CC(C)Nc1nc(C(C)O)cc2cnc(Nc3ccc(N4CCC(N(C)C)C(F)C4)nn3)nc12 (stereo not shown) [Compound 622] |  |  | ≥ 100 | < 10
3 | C[C@@H](O)c1cc2cnc(Nc3ccc(N4CCNCC4)nn3)nc2c(NC2CCOCC2)n1 [Compound 250] |  |  | ≥ 100 | < 10
4 | C[C@@H](O)c1cc2cnc(Nc3ccc(CN4CCCC(O)C4)cn3)nc2c(N[C@H]2CCCOC2)n1 (stereo partly shown) [Compound 1128] | ≥ 100 | < 10 |  | 
5 | C[C@@H](O)c1cc2cnc(Nc3ccc(CN4CCN(CCO)CC4)cn3)nc2c(NC2(C)CC2)n1 [Compound 1201] | ≥ 100 | < 10 |  | 
6 | CCNc1nc([C@@H](C)O)cc2cnc(Nc3ccc(CN4CCN(CCCO)CC4)cn3)nc12 [Compound 1072] | ≥ 100 | < 10 |  | 
7 | CC(C)Nc1nc([C@@H](C)O)cc2cnc(Nc3ccc(O[C@@H]4CCN(CCO)C4)cn3)nc12 [Compound 1058] | ≥ 100 | < 10 |  | 
8 | CO[C@H](C)c1cc2cnc(Nc3ccc(N4CCN(C(C)(C)C(=O)O)CC4)nn3)nc2c(NC(C)C)n1 [Compound 678, (R)-2-(4-(6-((8-(isopropylamino)-6-(1-methoxyethyl)pyrido[3,4-d]pyrimidin-2-yl)amino)pyridazin-3-yl)piperazin-1-yl)-2-methylpropanoic acid] | ≥ 100 | 10 to 100 |  | 
9 | CCNc1nc([C@@H](C)O)cc2cnc(Nc3ccc(CN4CCN(C(C)CO)CC4)cn3)nc12 (single isomer, unassigned) [Compound 1088] | ≥ 100 | < 10 |  | 
10 | CC(C)Oc1nc(C(C)O)cc2cnc(Nc3ccc(N4CCNCC4)nn3)nc12 (stereo not shown) [Compound 269] |  |  | ≥ 100 | < 10
11 | CCC(OC)c1cc2cnc(Nc3ccc(CN4CCNCC4)cn3)nc2c(NC(C)C)n1 (stereo not shown) [Compound 1067] | ≥ 100 | < 10 |  | 
12 | C[C@@H](O)c1cc2cnc(Nc3ccc(N4CCNCC4=O)cn3)nc2c(NC23CC(C2)C3)n1 [Compound 771] | ≥ 100 | < 10 |  | 
13 | FC(F)c1cc2cnc(Nc3ccc(N4CCNCC4)cn3)nc2c(NC2CCOCC2)n1 [Compound 4] |  |  | 10 to 100 | < 10
14 | CNC1CC2(C1)CN(c1ccc(Nc3ncc4cc([C@@H](C)OC)nc(N[C@H]5CCCOC5)c4n3)nc1)C2 [Compound 1009] | ≥ 100 | < 10 |  | 
15 | O=C(CO)N1CCc2nc(Nc3ncc4cc(C5CCOC5)nc(N[C@H]5CC[C@H](O)CC5)c4n3)ccc2C1 (stereo partly shown) [Compound 1145] | ≥ 100 | < 10 |  | 
16 | CCN1CCN(Cc2ccc(Nc3ncc4cc([C@@H](C)OC)nc(NC(C)C)c4n3)nc2)CC1 [Compound 240] |  |  | ≥ 100 | < 10
17 | CO[C@H](C)c1cc2cnc(Nc3ccc(N4CCN(CCO)CC4)nn3)nc2c(NC(C)C)n1 [Compound 249] |  |  | ≥ 100 | < 10
18 | COC(C)c1cc2cnc(Nc3ccc(N4CCNCC4)cn3)nc2c(NC(C)C)n1 (stereo not shown) [Compound 37] |  |  | ≥ 100 | < 10
19 | CC(C)CNc1nc([C@@H](C)O)cc2cnc(Nc3ccc(CN4CCC(O)CC4)cn3)nc12 [Compound 1023] | ≥ 100 | < 10 |  | 

Row | SMILES | IC50 [1, 3] [nM] | IC50 [2, 4] [nM] | IC50 [1, 5] [nM] | IC50 [2, 6] [nM]
20 | CO[C@H](C)c1cc2cnc(Nc3ccc(CN4CCNCC4)cn3)nc2c(N[C@H]2CC[C@H](C(=O)O)CC2)n1 [Compound 343] |  |  | ≥ 100 | < 10
21 | CCCNc1nc(C2CCOC2)cc2cnc(Nc3ccc(N4CCNCC4)nn3)nc12 (stereo not shown) [Compound 946] | ≥ 100 | < 10 |  | 
22 | C[C@@H](O)c1cc2cnc(Nc3ccc(N4CCNCC4=O)cn3)nc2c(NC2CCOC(C)(C)C2)n1 (stereo partly shown) [Compound 692] | ≥ 100 | < 10 |  | 
23 | CO[C@H](C)c1cc2cnc(Nc3ccc(CN4CCN(CCF)CC4)cn3)nc2c(NC(C)C)n1 [Compound 276] |  |  | ≥ 100 | < 10
24 | COC[C@H](C)Nc1nc([C@@H](C)O)cc2cnc(Nc3ccc(N4CCC(O)CC4)nn3)nc12 [Compound 760] | ≥ 100 | 10 to 100 |  | 
25 | C[C@@H](O)c1cc2cnc(Nc3ccc(CN4CCNCC4)cn3)nc2c(N[C@H]2CC[C@H](C(=O)O)CC2)n1 [Compound 342] |  |  | ≥ 100 | < 10
26 | COCC(C)(C)Nc1nc([C@@H](C)O)cc2cnc(Nc3ccc(CN4CCOCC4=O)cn3)nc12 [Compound 198] |  |  | ≥ 100 | 10 to 100
27 | CC(C)Nc1nc([C@@H](C)O)cc2cnc(Nc3ccc(-c4cncn4C)cn3)nc12 [Compound 958] | ≥ 100 | < 10 |  | 
28 | CC(C)Nc1nc([C@@H](C)O)cc2cnc(Nc3ccc(N4CCN(CC(F)(F)F)CC4)nn3)nc12 [Compound 963] | ≥ 100 | < 10 |  | 
29 | CCCNc1nc(C2(C)COC2)cc2cnc(Nc3ccc(N4CCNCC4)cn3)nc12 [Compound 1002] | ≥ 100 | < 10 |  | 
30 | CN(c1nc(C(F)F)cc2cnc(Nc3ccc(N4CCNCC4)cn3)nc12)C1CCCC1 [Compound 5] |  |  | ≥ 100 | < 10
31 | C[C@@H](O)c1cc2cnc(Nc3ccc(C4CCN(CC(=O)O)CC4)cn3)nc2c(NC(C)(C)C)n1 [Compound 830] | ≥ 100 | < 10 |  | 
32 | CC(C)Nc1nc([C@@H](C)O)cc2cnc(Nc3ccc(O[C@H]4CC[C@@H](N(C)C)CC4)cn3)nc12 [Compound 741] | ≥ 100 | < 10 |  | 
33 | COC(C)c1cc2cnc(Nc3ccc(CN4CCNCC4)cn3)nc2c(NC2CCC(C)(C)OC2)n1 (stereo not shown) [Compound 432] |  |  | ≥ 100 | < 10
34 | C[C@@H](O)c1cc2cnc(Nc3ccc(CN4CCN(CCO)CC4)cn3)nc2c(NCC2CCOCC2)n1 [Compound 847] | ≥ 100 | < 10 |  | 
35 | COC1CCN(c2ccc(Nc3ncc4cc([C@@H](C)O)nc(N[C@H]5CCCOC5)c4n3)nn2)CC1 [Compound 762] | ≥ 100 | < 10 |  | 
36 | C[C@@H](O)c1cc2cnc(Nc3ccc(N4CCNCC4=O)cn3)nc2c(NC2CCC(C)(C)CC2)n1 [Compound 658] | ≥ 100 | < 10 |  | 
37 | CO[C@H](C)c1cc2cnc(Nc3ccc4c(n3)CCN(C(=O)CO)C4)nc2c(N[C@H]2CC[C@H](O)CC2)n1 [Compound 1144] | ≥ 100 | < 10 |  | 
38 | CO[C@H](C)c1cc2cnc(Nc3ccc(N4CCN(C(=O)C5CCCO5)CC4)nn3)nc2c(NC(C)C)n1 (stereo partly shown) [Compound 1176] | ≥ 100 | < 10 |  | 

Row | SMILES | IC50 [1, 3] [nM] | IC50 [2, 4] [nM] | IC50 [1, 5] [nM] | IC50 [2, 6] [nM]
39 | CCCNc1nc([C@@H](C)O)cc2cnc(Nc3ccc(O[C@@H]4CCN(CCO)C4)cn3)nc12 [Compound 1059] | ≥ 100 | < 10 |  | 
40 | COC1CCC(Nc2nc(C(C)O)cc3cnc(Nc4ccc(OC5CCNCC5F)cn4)nc23)CC1 (stereo not shown) [Compound 646] | ≥ 100 | < 10 |  | 
41 | CCCCNc1nc([C@@H](C)O)cc2cnc(Nc3ccc(CN4CCC[C@@H](O)C4)cn3)nc12 [Compound 1185] | ≥ 100 | < 10 |  | 
42 | C[C@@H](O)c1cc2cnc(Nc3ccc(N4CCNCC4=O)cn3)nc2c(NCCCF)n1 [Compound 1079] | ≥ 100 | < 10 |  | 
43 | CO[C@H](C)c1cc2cnc(Nc3ccc(CN4CCN(C(=O)CO)CC4)cn3)nc2c(NC(C)C)n1 [Compound 988] | ≥ 100 | < 10 |  | 
44 | CC(O)c1cc2cnc(Nc3ccc(N4CCNCC4)cn3)nc2c(Nc2ccccc2)n1 (stereo not shown) [Compound 26] |  |  | ≥ 100 | < 10
45 | CO[C@H](C)c1cc2cnc(Nc3ccc(N4CCNCC4)nn3)nc2c(NCCCF)n1 [Compound 1226] | ≥ 100 | < 10 |  | 
46 | C[C@@H](O)c1cc2cnc(Nc3ccc(N4CCNCC4=O)cn3)nc2c(NC2CC2)n1 [Compound 1044] | ≥ 100 | 10 to 100 |  | 
47 | CO[C@H](C)c1cc2cnc(Nc3ccc(N4CCN(CC(=O)O)CC4=O)cn3)nc2c(NC(C)C)n1 [Compound 894] | ≥ 100 | 10 to 100 |  | 
48 | CCNc1nc(C(F)F)cc2cnc(Nc3ccc(CN4CCC(C(=O)O)CC4)cn3)nc12 [Compound 1096] | ≥ 100 | 10 to 100 |  | 
49 | CCCNc1nc([C@@H](C)O)cc2cnc(Nc3ccc(N4CCN(C)CC4)nn3)nc12 [Compound 1102] | ≥ 100 | < 10 |  | 
50 | CO[C@H](C)c1cc2cnc(Nc3ccc(N4CCCC(C(=O)O)C4)cn3)nc2c(NC(C)C)n1 (stereo partly shown) [Compound 893] | ≥ 100 | 10 to 100 |  | 
51 | C[C@@H](O)c1cc2cnc(Nc3ccc(CN4CCC(O)CC4)cn3)nc2c(N[C@H]2CCCOC2)n1 [Compound 1126] | ≥ 100 | < 10 |  | 
52 | C[C@@H](O)c1cc2cnc(Nc3ccc(C4CCNCC4)nn3)nc2c(NC2CCOCC2)n1 [Compound 317] |  |  | ≥ 100 | < 10
53 | CO[C@H](C)c1cc2cnc(Nc3ccc(N4CCN(C(C)C(=O)O)CC4=O)cn3)nc2c(NC(C)C)n1 (stereo partly shown) [Compound 897] | ≥ 100 | 10 to 100 |  | 
54 | CO[C@H](C)c1cc2cnc(Nc3ccc(OCCCN(C)C)cn3)nc2c(NC(C)C)n1 [Compound 283] |  |  | ≥ 100 | < 10
55 | C[C@@H](O)c1cc2cnc(Nc3ccc(N4CCN(C=O)CC4=O)cn3)nc2c(N[C@@H]2CCCOC2)n1 [Compound 351] |  |  | ≥ 100 | < 10
56 | COCC(C)(C)Nc1nc([C@@H](C)O)cc2cnc(Nc3ccc(N4CCNCC4=O)cn3)nc12 [Compound 206] |  |  | ≥ 100 | < 10
